# Test results: ChEMBL document CHEMBL1201862, “PubChem BioAssay data set” (2004)
#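 Each compound was tested at five concentrations against cells in 96-well plates for 48 hours. GI50 marks 50% less growth.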 Activity calls are given as the source filed them. No stated cut-off is given here; in the data, active = GI50 up to about 1.1 µM and inactive = higher.
# Assays:
# Test in all cases: NCI anticancer screen, dose series, 48 h
# U-251 = test system: U-251
# MDA-MB-435 = test system: MDA-MB-435
# PC-3 = test system: PC-3
# NCI-H23 = test system: NCI-H23
# MOLT-4 = test system: MOLT-4
# OVCAR-3 = test system: OVCAR-3
# SK-OV-3 = test system: SK-OV-3
# SN12C = test system: SN12C
# RXF 393 = test system: RXF 393
# MDA-MB-231 = test system: MDA-MB-231
# RPMI-8226 = test system: RPMI-8226
# EKVX = test system: EKVX
# SK-MEL-5 = test system: SK-MEL-5
# HT-29 = test system: HT-29
# SW-620 = test system: SW-620
# HCT-116 = test system: HCT-116
# UACC-257 = test system: UACC-257
# SK-MEL-28 = test system: SK-MEL-28
# UO-31 = test system: UO-31
SMILES,GI50 (U-251),GI50 (MDA-MB-435),GI50 (PC-3),GI50 (NCI-H23),GI50 (MOLT-4),GI50 (OVCAR-3),GI50 (SK-OV-3),GI50 (SN12C),GI50 (RXF 393),GI50 (MDA-MB-231),GI50 (RPMI-8226),GI50 (EKVX),GI50 (SK-MEL-5),GI50 (HT-29),GI50 (SW-620),GI50 (HCT-116),GI50 (UACC-257),GI50 (SK-MEL-28),GI50 (UO-31)
Oc1c2c(nc3cc4c(cc13)OCO4)-c1ccccc1CCC2,> 50 µM (inactive),23.7 µM (inactive),> 50 µM (inactive),> 50 µM (inactive),> 50 µM (inactive),> 50 µM (inactive),> 50 µM (inactive),> 50 µM (inactive),> 50 µM (inactive),> 50 µM (inactive),> 50 µM (inactive),> 50 µM (inactive),45.6 µM (inactive),34.4 µM (inactive),> 50 µM (inactive),28.1 µM (inactive),> 50 µM (inactive),> 50 µM (inactive),> 50 µM (inactive)
O=C(N/N=C/c1ccc([N+](=O)[O-])cc1)Nc1ccc(Br)cc1,69.3 µM (inactive),32.6 µM (inactive),> 100 µM (inactive),47.2 µM (inactive),36.4 µM (inactive),32.2 µM (inactive),68.2 µM (inactive),60 µM (inactive),> 100 µM (inactive),> 100 µM (inactive),28.1 µM (inactive),99.1 µM (inactive),51.6 µM (inactive),97.1 µM (inactive),52 µM (inactive),45.8 µM (inactive),> 100 µM (inactive),> 100 µM (inactive),> 100 µM (inactive)
COc1cccc(OC)c1/C=C1\OC(=O)c2cccc(OC)c21,3.32 µM (inactive),0.526 µM (active),4.72 µM (inactive),19.4 µM (inactive),5.64 µM (inactive),2.51 µM (inactive),5.2 µM (inactive),20 µM (inactive),4.61 µM (inactive),12.8 µM (inactive),3.46 µM (inactive),10.3 µM (inactive),3.13 µM (inactive),2.11 µM (inactive),3.37 µM (inactive),3.87 µM (inactive),7.43 µM (inactive),6.7 µM (inactive),5.47 µM (inactive)
C[N+]12CCCCC1C(COc1cccc3cccnc13)CCC2 (centres undefined),> 100 µM (inactive),> 100 µM (inactive),> 100 µM (inactive),> 100 µM (inactive),> 100 µM (inactive),26.6 µM (inactive),> 100 µM (inactive),> 100 µM (inactive),> 100 µM (inactive),91.2 µM (inactive),34.4 µM (inactive),> 100 µM (inactive),75 µM (inactive),53.1 µM (inactive),> 100 µM (inactive),61.2 µM (inactive),> 100 µM (inactive),> 100 µM (inactive),> 100 µM (inactive)
C=CCN(C(C)=O)c1cc(OCc2ccccc2)c2c(c1)c(C)cn2S(=O)(=O)c1ccccc1,4.98 µM (inactive),5.11 µM (inactive),4.21 µM (inactive),7.8 µM (inactive),2.67 µM (inactive),4.15 µM (inactive),16.1 µM (inactive),5.52 µM (inactive),4.74 µM (inactive),6.98 µM (inactive),2.47 µM (inactive),8.85 µM (inactive),4.37 µM (inactive),5.55 µM (inactive),5.46 µM (inactive),3.85 µM (inactive),5.11 µM (inactive),21.2 µM (inactive),2.86 µM (inactive)
Nc1ncnc2c1ncn2C1OC(CO)=CC1O (centres undefined),> 37.5 µM (inactive),> 37.5 µM (inactive),> 37.5 µM (inactive),> 37.5 µM (inactive),> 37.5 µM (inactive),> 37.5 µM (inactive),> 37.5 µM (inactive),> 37.5 µM (inactive),> 37.5 µM (inactive),> 37.5 µM (inactive),> 37.5 µM (inactive),> 37.5 µM (inactive),> 37.5 µM (inactive),> 37.5 µM (inactive),> 37.5 µM (inactive),> 37.5 µM (inactive),> 37.5 µM (inactive),> 37.5 µM (inactive),> 37.5 µM (inactive)
CCO/C=N/C1=C(C#N)C(c2ccc(OC)c(OC)c2)c2c(-c3ccccc3)nn(-c3ccccc3)c2O1 (centres undefined),12.7 µM (inactive),17 µM (inactive),13.6 µM (inactive),15.4 µM (inactive),8.02 µM (inactive),16.1 µM (inactive),21.2 µM (inactive),14.8 µM (inactive),12.2 µM (inactive),19.2 µM (inactive),21.4 µM (inactive),16.1 µM (inactive),12 µM (inactive),19.1 µM (inactive),11.8 µM (inactive),13.1 µM (inactive),> 100 µM (inactive),15 µM (inactive),17.7 µM (inactive)
C=CCc1[nH]c2c(OCc3ccccc3)cc(N(CC=C)C(C)=O)cc2c1C,12.8 µM (inactive),17.1 µM (inactive),6.76 µM (inactive),13.9 µM (inactive),5.77 µM (inactive),14.3 µM (inactive),16.4 µM (inactive),16 µM (inactive),11.2 µM (inactive),10.7 µM (inactive),12.1 µM (inactive),8.45 µM (inactive),11.8 µM (inactive),8.04 µM (inactive),13.9 µM (inactive),12.3 µM (inactive),16 µM (inactive),16.9 µM (inactive),9.08 µM (inactive)
O=C(Nn1c(-c2ccccc2)nc2ccccc2c1=O)c1ccccn1,75.7 µM (inactive),> 100 µM (inactive),> 100 µM (inactive),> 100 µM (inactive),> 100 µM (inactive),79.3 µM (inactive),> 100 µM (inactive),> 100 µM (inactive),45.3 µM (inactive),> 100 µM (inactive),> 100 µM (inactive),> 100 µM (inactive),37.7 µM (inactive),65.3 µM (inactive),> 100 µM (inactive),57.4 µM (inactive),> 100 µM (inactive),> 100 µM (inactive),> 100 µM (inactive)
CN(NC(=O)c1ccco1)C1=NCCCCN1,> 100 µM (inactive),> 100 µM (inactive),> 100 µM (inactive),> 100 µM (inactive),> 100 µM (inactive),> 100 µM (inactive),> 100 µM (inactive),> 100 µM (inactive),> 100 µM (inactive),> 100 µM (inactive),> 100 µM (inactive),> 100 µM (inactive),> 100 µM (inactive),> 100 µM (inactive),> 100 µM (inactive),> 100 µM (inactive),> 100 µM (inactive),> 100 µM (inactive),> 100 µM (inactive)
CC(C)C1=CC23CCC4C(C)(C(=O)O)CCCC4(C)C2CC1C1C(=O)N(c2ccc(C(=O)O)cc2)C(=O)C13 (centres undefined),> 100 µM (inactive),> 100 µM (inactive),> 100 µM (inactive),> 100 µM (inactive),> 100 µM (inactive),> 100 µM (inactive),> 100 µM (inactive),> 100 µM (inactive),> 100 µM (inactive),> 100 µM (inactive),> 100 µM (inactive),> 100 µM (inactive),> 100 µM (inactive),> 100 µM (inactive),> 100 µM (inactive),> 100 µM (inactive),> 100 µM (inactive),> 100 µM (inactive),> 100 µM (inactive)
